Patent US20080200551A1, “Flourene Derivative” (priority 2004, published 2008)
Where a name gives a salt, the structure may show the parent alone.

What was measured:
[1] = molecular target: human 5-HT7 receptor (Homo sapiens, UniProt P34969); assay: Binding test of 5-HT7 receptor; conditions: [3H]5-HT, human 5-HT7 expressing CHO cell membrane
Description: (2) Binding Test of 5-HT7 Receptor
(i) Preparation of Membrane Preparation
CHO cell was used as the gene transferring cell.
Cultured CHO cells expressing human 5-HT7 receptor were washed with PBS (−). The cells were scraped in the presence of PBS(−), and the cells were recovered by centrifugation (1,000 rpm, 10 min, 4° C.). They were homogenized using Polytron (PTA 10-TS) in the presence of 5 mM Tris-HCl (pH 7.4) buffer and centrifuged (40,000×g, 10 min, 4° C.). They were suspended using a homogenizer in the presence of 50 mM Tris-HCl (pH 7.4) buffer. They were subjected to centrifugation (40,000×g, 10 min, 4° C.), suspended in 50 mM Tris-HCl (pH 7.4) and stored at −80° C.
(ii) Receptor Binding Test
The compound was dissolved in 100% DMSO and diluted to respective concentrations. Nonspecific binding was defined as the binding quantity in the presence of 10 μM metergoline, and the result of subtracting the nonspecific binding quantity from the total binding quantity was defined as the specific binding quantity. This was mixed with 4 ml of 50 mM Tris-HCl buffer (pH 7.4) and filtered under a reduced pressure using a GF/B glass filter, and the filter was washed (4 ml×3) with the same buffer. The glass filter was soaked in 5 ml of a liquid scintillator (Aquasol-2) and the radioactivity was measured using a liquid scintillation counter.

[2] = tested on: protein leaked from the dural blood vessel caused by 5-HT; assay: Preventive effect in guinea pig migraine model (leaked protein); type: in vivo; conditions: for leakage of the protein: 10 mg/kg or 30 mg/kg of oral administration
Description: (4) Preventive Effect in Guinea Pig Migraine Model
In this test system, migraine preventive effect was evaluated by measuring this leaked protein in the presence of a compound to be tested, and this was carried out by partially modifying the method described in Rachel A. Spokes and Vicki C. Middlefell, European Journal of Pharmacology (1995) 281, 75-79.
Hartley male guinea pig (250-350 g) was anesthetized by peritoneal administration (i.p.) of urethane (1.5 g/kg). By applying simple canulation to a saphena, 50 mg/kg of a fluorescent protein (FITC-BSA) was intravenously administered (i.v.) and 5 minutes thereafter, physiological saline or 1 μM of 5-HT was intravenously administered. By carrying out perfusion with physiological saline 15 minutes thereafter, blood was washed out. […] By detaching the skull, dura mater was took out and incubated at 37° C. for 16 hours in an Eppendorf tube in the presence of physiological saline of pH 11. Centrifugation was carried out, and the supernatant was dispensed into a plate. Fluorescence intensity was measured using a fluorescence plate reader (excitation wavelength 485 nm, […] 530 nm). By measuring dura mater weight, fluorescence intensity per mg dural protein was calculated.
Values of the fluorescence intensity measured at the time of the administration of each compound and at the time of no administration are shown in FIG. 1 to FIG. 4. […] The control indicates fluorescence intensity at the time of no addition of 5-HT, namely the reference value.

[3] = molecular target: 5-HT4 receptor (UniProt O70528); assay: Affinity for other receptors: 5-HT4; type: binding
[4] = molecular target: 5-HT6 receptor (UniProt P50406); assay: Affinity for other receptors: 5-HT6; type: binding
[5] = molecular target: α1 receptor; assay: Affinity for other receptors: α1; type: binding
[6] = tested on: 5-HT2B receptor; conditions: against 5-HT1A, 5-HT1B, 5-HT2A, 5-HT2C, 5-HT3, 5-HT6, 5-HT7, α1, M1 and D2 receptors; cited from earlier work

Chain of human 5-HT7 receptor (P34969 1-432 limits assumed): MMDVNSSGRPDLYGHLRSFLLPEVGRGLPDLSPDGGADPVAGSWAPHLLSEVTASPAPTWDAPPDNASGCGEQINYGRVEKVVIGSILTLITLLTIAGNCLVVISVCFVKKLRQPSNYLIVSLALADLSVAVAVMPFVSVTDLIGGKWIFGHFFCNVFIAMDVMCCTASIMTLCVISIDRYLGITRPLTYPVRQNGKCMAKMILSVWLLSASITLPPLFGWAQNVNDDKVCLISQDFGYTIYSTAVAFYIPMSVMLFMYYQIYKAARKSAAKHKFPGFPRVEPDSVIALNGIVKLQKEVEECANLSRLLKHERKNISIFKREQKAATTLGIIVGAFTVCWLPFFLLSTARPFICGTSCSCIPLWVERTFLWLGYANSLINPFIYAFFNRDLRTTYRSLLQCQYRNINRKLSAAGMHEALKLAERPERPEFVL

| Structure (SMILES) | Ki [1] | leakage of the protein [2] | further results |
| --- | --- | --- | --- |
| CC1(O)c2ccccc2-c2ccc(C(=O)N=C(N)N)cc21 (racemic) [Example 56, N-(diaminomethylene)-9-hydroxy-9-methyl-9H-fluorene-2-carboxamide] | 0.4 to 310 nM | – | – |
| CC1(O)c2cc(C(=O)N=C(N)N)ccc2-c2c(F)cccc21 (racemic) [Example 77, N-(diaminomethylene)-5-fluoro-9-hydroxy-9-methyl-9H-fluorene-2-carboxamide] | 0.4 to 310 nM | – | – |
| NC(N)=NC(=O)c1ccc2c(c1)C1(CCCO1)c1ccccc1-2 (single isomer, unassigned) [Example 60a, N-(diaminomethylene)-4′,5′-dihydro-3′H-spiro[fluorene-9,2′-furan]-2-carboxamide (optically active substance A)] | – | almost completely suppressed leakage of the protein | – |
| NC(N)=NC(=O)c1ccc2c(c1)C1(CCCO1)c1ccccc1-2 (single isomer, unassigned) [Example 60b, N-(diaminomethylene)-4′,5′-dihydro-3′H-spiro[fluorene-9,2′-furan]-2-carboxamide (optically active substance B)] | – | almost completely suppressed leakage of the protein | – |
| CC1(O)c2cc(C(=O)N=C(N)N)ccc2-c2c(F)cccc21 (single isomer, unassigned) [Example 78b, N-(diaminomethylene)-5-fluoro-9-hydroxy-9-methyl-9H-fluorene-2-carboxamide (optically active substance B)] | – | almost completely suppressed leakage of the protein | – |
| Cl.NC(N)=NC(=O)c1ccc2c(c1)C(O)c1ccccc1-2 (stereo not shown) [Example 3, N-(diaminomethylene)-9-hydroxy-9H-fluorene-2-carboxamide hydrochloride] | – | – | IC50 [3]: ≥ 1000 nM; IC50 [4]: ≥ 1000 nM; IC50 [5]: ≥ 1000 nM; amount of the leaked protein ([2]; 3 mg/kg of intraperitoneal administration, FIG. 4): almost completely suppressed the amount of leaked protein |
| CC(C)C1NC(=NC(=O)c2ccc3c(c2)C(O)c2ccccc2-3)NC1=O [Example 8, 9-hydroxy-N-[(2EZ,4S)-4-isopropyl-5-oxoimidazolin-2-ylidene-9H-fluorene-2-carboxamide hydrochloride] | 0.4 to 310 nM | – | – |
| NC(N)=NC(=O)c1ccc2c(c1)C(O)c1c(Cl)cccc1-2 (stereo not shown) [Example 38, 8-chloro-N-(diaminomethylene)-9-hydroxy-9H-fluorene-2-carboxamide] | 0.4 to 310 nM | – | – |
| NC(N)=NC(=O)c1ccc2c(c1)C1(SCCS1)c1ccccc1-2 [Example 59] | – | almost completely suppressed leakage of the protein | – |
| NC(N)=NC(=O)c1ccc2c(c1)C1(CC1)c1ccccc1-2 [Example 63, N-(diaminomethylene)spiro[cyclopropane-1,9′-fluorene]-2′-carboxamide] | 0.4 to 310 nM | – | – |
| COC1(C)c2ccccc2-c2ccc(C(=O)N=C(N)N)cc21 (stereo not shown) [Example 71, N-(diaminomethylene)-9-methoxy-9-methyl-9H-fluorene-2-carboxamide] | 0.4 to 310 nM | – | – |
| CCC1(OC)c2ccccc2-c2ccc(C(=O)N=C(N)N)cc21 (stereo not shown) [Example 72, N-(diaminomethylene)-9-ethyl-9-methoxy-9H-fluorene-2-carboxamide] | 0.4 to 310 nM | – | – |
| NC(N)=NC(=O)c1ccc2c(c1)C1(SCCS1)c1cccc(F)c1-2 [Example 85] | – | almost completely suppressed leakage of the protein | – |
| COC1(C)c2cc(C(=O)N=C(N)N)ccc2-c2c(F)cccc21 (stereo not shown) [Example 87, N-(diaminomethylene)-5-fluoro-9-methoxy-9-methyl-9H-fluorene-2-carboxamide] | 0.4 to 310 nM | – | – |
| CC(C)c1cc(-c2ccc(F)c3ccccc23)nc(N)n1 [RS-127445, 2-amino-4-(4-fluoronaphth-1-yl)-6-isopropylpyrimidine, reference compound] | – | – | amount of the leaked protein ([2]; 3 mg/kg, intraperitoneal, FIG. 1): showed an effect to reduce amount of the leaked protein; amount of the leaked protein versus reference value ([2]; dose increased from 3 mg/kg to 10 mg/kg, intraperitoneal, FIG. 1): did not reduced to the reference value; 5-HT2B receptor selectivity [6]: 1000 times |
| CC1CCN(CC[C@H]2CCCN2S(=O)(=O)c2cccc(O)c2)CC1 [SB-269970, (R)-3-(2-(2-(4-methylpiperidin-1-yl)ethyl)pyrrolidine-1-sulfonyl)phenol, reference compound] | – | – | amount of the leaked protein versus reference value ([2]; dose increased from 3 mg/kg to 30 mg/kg, intraperitoneal, FIG. 2): did not reduced the amount of leaked protein to the reference value; amount of the leaked protein ([2]; from 10 mg/kg, intraperitoneal, FIG. 2): showed the effect |

Continued, in another order:

| Ki [1] | Structure (SMILES) | leakage of the protein [2] | further results |
| --- | --- | --- | --- |
| 0.4 to 310 nM | CC1(O)c2ccccc2-c2ccc(C(=O)N=C(N)N)cc21 (single isomer, unassigned) [Example 56a, N-(diaminomethylene)-9-hydroxy-9-methyl-9H-fluorene-2-carboxamide (optically active substance A)] | almost completely suppressed leakage of the protein | – |
| 0.4 to 310 nM | CC1(O)c2cc(C(=O)N=C(N)N)ccc2-c2c(F)cccc21 (single isomer, unassigned) [Example 78a, N-(diaminomethylene)-5-fluoro-9-hydroxy-9-methyl-9H-fluorene-2-carboxamide (optically active substance A)] | – | – |
